Like-named read-outs stand apart in the source and are kept apart here.
Key:
Assay type in all cases: cell-based, human
Settings in all cases: SRB method, 96 hours incubation
PANC-1 (pancreas) = test: Cell growth inhibition assay (SRB), PANC-1
Protocol: (§1) OVCAR-3, MCF-7, PC3, HepG2, A549, HT-29 and MKN-45 were grown in RPMI1640 medium (Invitrogen, Carlsbad, Calif.) supplemented with 10% fetal bovine serum (‘FBS’), 1 mM sodium pyruvate, 10 mM HEPES and 100 U/ml penicillin and […] streptomycin (‘P/S’). MDA-MB-231, HCT116, UMRC2, Caki-1, PANC-1 and HEK293 cells were maintained in Dulbecco's modified Eagle's medium (‘DMEM’, Invitrogen) supplemented with 10% FBS, P/S, 10 mM HEPES and 2 mM L-glutamine. HUVEC was maintained in M199 supplemented with basic fibroblast growth factor (‘bFGF’) […] and FBS 20%. All cells were incubated at 37° C. under humidified 5% CO2.
(§2) The growth inhibition of the substituted quinoxalin-piperazine compounds against a variety of human tumor cells was evaluated. The relative importance of particular substituent groups on the compounds was also studied. The substituted piperazine derivative compounds, prepared as described above, were tested, along with DMSO as a control.
(§3) The growth inhibition assay of various compounds against human tumor cell lines was performed using the Sulforhodamine B (‘SRB’) method (Skehan et al., J. National Cancer Institute, 1990, 82, 1107-1112). […] Triplicate wells were used for each treatment. The cells were incubated with the various compounds for 96 hours at 37° C. in a humidified 5% CO2 atmosphere. After 96-hour incubation, cells were fixed with 10% trichloroacetic acid (‘TCA’), incubated for 1 hour at 4° C., and washed 3 times with tap water. Subsequently cells were stained with 0.4% sulforhodamine B in 1% acetic acid for 30 minutes, washed 4 times with 1% acetic acid, and air-dried again. After 5 minutes agitation in 10 mM Tris solution, the absorbance of each well was measured at 530 nm using Benchmark Plus Microplate reader (Bio-Rad Laboratories, Hercules, Calif.).
(§4) To translate the OD530 values into the number of live cells in each well, the OD530 values were compared to those on standard OD530-versus-cell number curves generated for each cell line. The percent survival was calculated using the formula: % Survival=live cell number[test]/live cell number[control]×100
(§5) The IC50 values were calculated by non-linear regression analysis.

MDA-MB-231 (breast) = test: Cell growth inhibition assay (SRB), MDA-MB-231
Protocol: as §1, §2, §3, §4, §5

UMRC2 (kidney) = test: Cell growth inhibition assay (SRB), UMRC2
Protocol: as §1, §2, §3, §4, §5

[1] = Homo sapiens, PANC-1, read-out: Inhibition of cell growth (IC50, μM) by quinoxaline-piperazine compounds against human cancer cell lines: PANC-1
[2] = Homo sapiens, MDA-MB-231, read-out: Inhibition of cell growth (IC50, μM) by quinoxaline-piperazine compounds against human cancer cell lines: MDA-MB-231
[3] = Homo sapiens, UMRC2, read-out: Inhibition of cell growth (IC50, μM) by quinoxaline-piperazine compounds against human cancer cell lines: UMRC2
[4] = Homo sapiens, MDA-MB-231 (breast), read-out: IC50, MDA-MB-231
[5] = Homo sapiens, UMRC2 (kidney), read-out: IC50, UMRC2
[6] = Homo sapiens, PANC-1 (pancreas), read-out: IC50, PANC-1
[7] = PANC-1 (pancreas), read-out: IC50, PANC-1
[8] = MDA-MB-231 (breast), read-out: IC50, MDA-MB-231
[9] = UMRC2 (kidney), read-out: IC50, UMRC2
[10] = PANC-1, read-out: Inhibition of cell growth (IC50, μM) by quinoxaline-piperazine compounds against human cancer cell lines: PANC-1
[11] = MDA-MB-231, read-out: Inhibition of cell growth (IC50, μM) by quinoxaline-piperazine compounds against human cancer cell lines: MDA-MB-231
[12] = UMRC2, read-out: Inhibition of cell growth (IC50, μM) by quinoxaline-piperazine compounds against human cancer cell lines: UMRC2

Row | Compound | IC50 (PANC-1 (pancreas); [1]) [µM] | IC50 (MDA-MB-231 (breast); [2]) [µM] | IC50 (UMRC2 (kidney); [3]) [µM] | IC50 (MDA-MB-231 (breast); [4]) [µM] | IC50 (UMRC2 (kidney); [5]) [µM] | IC50 (PANC-1 (pancreas); [6]) [µM] | also measured
1 | COc1nc2ccc(C)cc2nc1NC(=O)N1CCN(c2cccc(C)c2)CC1 [Compound 50, 1-[(2-Methoxy-6-methylquinoxalin-3-yl)aminocarbonyl]-4-(3-methylphenyl)piperazine] | 1.04 | 0.22 | 0.4 | – | – | – | –
2 | COc1nc2ccc(C)cc2nc1NC(=O)N1CCN(c2cccc(Cl)c2)CC1 [Compound 57, 1-[(2-Methoxy-6-methylquinoxalin-3-yl)aminocarbonyl]-4-(3-chlorophenyl)piperazine] | 0.64 | 0.14 | 0.24 | – | – | – | –
3 | COc1nc2cc(C)ccc2nc1NC(=O)N1CCN(c2cccc(C)c2)CC1 [Compound 134, 1-[(3-Methoxy-6-methylquinoxalin-2-yl)aminocarbonyl]-4-(3-methylphenyl)piperazine] | – | – | – | 0.26 | 0.26 | – | –
4 | COc1cc(OC)cc(N2CCN(C(=O)Nc3nc4cc(OC)c(OC)cc4nc3OC)CC2)c1 [Compound 191, 1-[(2,6,7-Trimethoxyquinoxalin-3-yl)aminocarbonyl]-4-(3,5-dimethoxyphenyl)piperazine] | – | – | – | 0.69 | 0.49 | 0.9 | –
5 | COc1nc2cc(F)ccc2nc1NC(=O)N1CCN(c2cccc(C)c2)CC1 [Compound 92, 1-[(6-Fluoro-3-methoxyquinoxalin-2-yl)aminocarbonyl]-4-(3-methylphenyl)piperazine] | 0.95 | 0.21 | 0.37 | – | – | – | –
6 | COc1nc2ccc(Cl)cc2nc1NC(=O)N1CCN(c2cccc(Cl)c2)CC1 [Compound 36, 1-[(6-Chloro-2-methoxyquinoxalin-3-yl)aminocarbonyl]-4-(3-chlorophenyl)piperazine] | 0.93 | 0.17 | 0.31 | – | – | – | –
7 | COc1nc2cc(Cl)ccc2nc1NC(=O)N1CCN(c2cccc(C(F)(F)F)c2)CC1 [Compound 116, 1-[(6-Chloro-3-methoxyquinoxalin-2-yl)aminocarbonyl]-4-(3-trifluorotolyl)piperazine] | – | – | – | – | – | – | IC50 (PANC-1 (pancreas); [7]): > 1 µM; IC50 (MDA-MB-231 (breast); [8]): > 1 µM; IC50 (UMRC2 (kidney); [9]): > 1 µM
8 | COc1ccc2nc(OC)c(NC(=O)N3CCN(c4cccc(C)c4)CC3)nc2c1 [Compound 71, 1-[(2,6-Dimethoxyquinoxalin-3-yl)aminocarbonyl]-4-(3-methylphenyl)piperazine] | 1.43 | 0.4 | 0.63 | – | – | – | –
9 | COc1nc2cc(C)ccc2nc1NC(=O)N1CCN(c2cccc(Cl)c2)CC1 [Compound 141, 1-[(3-Methoxy-6-methylquinoxalin-2-yl)aminocarbonyl]-4-(3-chlorophenyl)piperazine] | – | – | – | 0.25 | 0.25 | – | –
10 | COc1nc2ccc(Cl)cc2nc1NC(=O)N1CCN(c2cccc(C(F)(F)F)c2)CC1 [Compound 32, 1-[(6-Chloro-2-methoxyquinoxalin-3-yl)aminocarbonyl]-4-(3-trifluorotolyl)piperazine] | – | – | – | – | – | – | IC50 (PANC-1 (pancreas); [10]): > 1 µM; IC50 (MDA-MB-231 (breast); [11]): 1 µM; IC50 (UMRC2 (kidney); [12]): 1 µM
11 | COc1ccc2nc(NC(=O)N3CCN(c4ccccn4)CC3)c(OC)nc2c1 [Compound 167, 1-[(3,6-Dimethoxyquinoxalin-2-yl)aminocarbonyl]-4-(2-pyridyl)piperazine] | – | – | – | > 1 | > 1 | > 1 | –
12 | COc1cc(OC)cc(N2CCN(C(=O)Nc3nc4cc(Cl)c(Cl)cc4nc3OC)CC2)c1 [Compound 177, 1-[(6,7-Dichloro-2-methoxyquinoxalin-3-yl)aminocarbonyl]-4-(3,5-dimethoxyphenyl)piperazine] | – | – | – | 1.45 | 0.58 | 1.16 | –
13 | COc1cc2nc(NC(=O)N3CCN(c4cccc(C(F)(F)F)c4)CC3)c(OC)nc2cc1OC [Compound 194, 1-[(2,6,7-Trimethoxyquinoxalin-3-yl)aminocarbonyl]-4-(3-trifluorotolyl)piperazine] | – | – | – | – | – | – | IC50 (PANC-1 (pancreas); [7]): 1.4 µM; IC50 (MDA-MB-231 (breast); [8]): 0.75 µM; IC50 (UMRC2 (kidney); [9]): 0.79 µM
14 | COc1nc2ccc(Cl)cc2nc1NC(=O)N1CCN(c2cccc(C)c2)CC1 [Compound 29, 1-[(6-Chloro-2-methoxyquinoxalin-3-yl)aminocarbonyl]-4-(3-methylphenyl)piperazine] | 0.95 | 0.16 | 0.3 | – | – | – | –
15 | COc1cc2nc(NC(=O)N3CCN(c4cc(C)cc(C)c4)CC3)c(OC)nc2cc1OC [Compound 193, 1-[(2,6,7-Trimethoxyquinoxalin-3-yl)aminocarbonyl]-4-(3,5-dimethylphenyl)piperazine] | – | – | – | 0.65 | 0.47 | 0.69 | –
16 | COc1nc2ccc(C)cc2nc1NC(=O)N1CCN(c2cccc(C(F)(F)F)c2)CC1 [Compound 53, 1-[(2-Methoxy-6-methylquinoxalin-3-yl)aminocarbonyl]-4-(3-trifluorotolyl)piperazine] | – | – | – | – | – | – | IC50 (PANC-1 (pancreas); [10]): > 1 µM; IC50 (MDA-MB-231 (breast); [11]): > 1 µM; IC50 (UMRC2 (kidney); [12]): > 1 µM
17 | COc1ccc2nc(NC(=O)N3CCN(c4cccc(Cl)c4)CC3)c(OC)nc2c1 [Compound 162, 1-[(3,6-Dimethoxyquinoxalin-2-yl)aminocarbonyl]-4-(3-chlorophenyl)piperazine] | – | – | – | 0.23 | 0.29 | 0.46 | –
18 | COc1ccc2nc(NC(=O)N3CCN(c4cccc(C(F)(F)F)c4)CC3)c(OC)nc2c1 [Compound 158, 1-[(3,6-Dimethoxyquinoxalin-2-yl)aminocarbonyl]-4-(3-trifluorotoly)piperazine] | – | – | – | – | – | – | IC50 (PANC-1 (pancreas); [7]): > 1 µM; IC50 (MDA-MB-231 (breast); [8]): > 1 µM; IC50 (UMRC2 (kidney); [9]): > 1 µM
19 | COc1nc2cc(Cl)ccc2nc1NC(=O)N1CCN(c2cccc(C)c2)CC1 [Compound 113, 1-[(6-Chloro-3-methoxyquinoxalin-2-yl)aminocarbonyl]-4-(3-methylphenyl)piperazine] | – | – | – | 0.3 | 0.4 | 0.61 | –
20 | COc1ccc2nc(NC(=O)N3CCN(c4cccc(C)c4)CC3)c(OC)nc2c1 [Compound 155, 1-[(3,6-Dimethoxyquinoxalin-2-yl)aminocarbonyl]-4-(3-methylphenyl)piperazine] | – | – | – | 0.23 | 0.39 | 0.96 | –
21 | COc1nc2cc(F)c(F)cc2nc1NC(=O)N1CCN(c2cc(C)cc(C)c2)CC1 [Compound 172, 1-[(6,7-Difluoro-2-methoxyquinoxalin-3-yl)aminocarbonyl]-4-(3,5-dimethylphenyl)piperazine] | – | – | – | 0.7 | 0.56 | 1 | –
22 | COc1cccc(N2CCN(C(=O)Nc3nc4ccc(C)cc4nc3OC)CC2)c1 [Compound 129, 1-[(3-Methoxy-6-methylquinoxalin-2-yl)aminocarbonyl]-4-(3-methoxyphenyl)piperazine] | – | – | – | > 1 | > 1 | > 1 | –
23 | COc1cccc(N2CCN(C(=O)Nc3nc4ccc(Cl)cc4nc3OC)CC2)c1 [Compound 108, 1-[(6-Chloro-3-methoxyquinoxalin-2-yl)aminocarbonyl]-4-(3-methoxyphenyl)piperazine] | – | – | – | > 1 | > 1 | > 1 | –
24 | COc1cccc(N2CCN(C(=O)Nc3nc4cc(Cl)ccc4nc3OC)CC2)c1 [Compound 24, 1-[(6-Chloro-2-methoxyquinoxalin-3-yl)aminocarbonyl]-4-(3-methoxyphenyl)piperazine] | 1.66 | 0.41 | 0.68 | – | – | – | –
25 | COc1ccc2nc(OC)c(NC(=O)N3CCN(c4cccc(Cl)c4)CC3)nc2c1 [Compound 78, 1-[(2,6-Dimethoxyquinoxalin-3-yl)aminocarbonyl]-4-(3-chlorophenyl)piperazine] | > 1 | > 1 | > 1 | – | – | – | –
